Measurements reported in patent US20080318982A1, “Pharmaceutical Combination for the Treatment of Luts” (Pfizer, Inc., priority 2005, published 2008).

Test system: Anaesthetized Guinea-pig
Test: Filling cystometry in the anaesthetized guinea-pig (effects on lower urinary tract function)
Assay type: in vivo
Settings: for % Change in Micturition Pressure / % Change in Threshold Volume: infused continuously for 60 min, vs baseline
Procedure: Animals: Female Hartley guinea pigs (body weight 300-350 grams).
Surgical procedure: The animals are anaesthetized with urethane (1.5 g/kg intraperitoneally) given as a divided dose of 80% initially and 20% 15 min later. Body temperature is maintained at 37±2° C. throughout the experiment. The bladder is exposed through a lower abdominal incision and a polyethylene catheter with a small cuff is inserted in the bladder dome and secured with a purse-string suture. The ureters are then ligatured. The bladder is replaced under the abdominal wall and the catheter is connected via a T-tube to a pressure transducer in order to measure intravesical pressure. The trachea is cannulated. The jugular vein is cannulated to allow administration of test compounds and the femoral artery is cannulated in order to collect plasma sample.
Cystometry: A series of filling cystometry cycles are performed throughout the experimental measurement period to establish baseline parameters and determine drug effect. Before each cystometry cycle, the bladder is emptied manually. Saline at room temperature is then infused continuously into the bladder via the catheter at a flow rate of 600 μL/min until a micturition occurs. The following micturition parameters are measured during each cystometry cycle: Micturition Pressure (MP, the pressure in the bladder during voiding) and Threshold Volume (ThV, volume at which micturition occurs, mL).
Evaluation of drug effect: After the determination of baseline parameters (mean of 3 micturition cycles), test substance or vehicle is administered continuously for 60 minutes. At the end of the drug infusion period, the effect of drug on cystometry parameters is determined by taking an average of the measurements made in two micturition cycles. For combination studies, the respective doses of the test compounds are infused together over a 60 min period following the measurement of baseline parameters.

| SMILES | effect on micturition pressure (in words) (Compound A 0.11 mg/kg, 0.32 mg/kg) | % Change in Micturition Pressure (Compound A 0.11 mg/kg) [%] | % Change in Threshold Volume (Compound A 0.11 mg/kg) [%] | % Change in Micturition Pressure (Compound A 0.32 mg/kg) [%] | % Change in Threshold Volume (Compound A 0.32 mg/kg) | % Change in Micturition Pressure (Oxybutynin 3.18 mg/kg) | % Change in Threshold Volume (Oxybutynin 3.18 mg/kg) | effect on micturition pressure (in words) (oxybutynin 3.18 mg/kg) |
| --- | --- | --- | --- | --- | --- | --- | --- | --- |
| CCCOc1ccc(S(=O)(=O)N2CCN(CC)CC2)cc1-c1nc2c(CC)nn(Cc3ccccn3)c2c(=O)[nH]1 [Compound A, 3-ethyl-5-[5-(4-ethylpiperazin-1-ylsulphonyl)-2-n-propoxyphenyl]-1-(pyridin-2-yl)methyl-1,6-dihydro-7H-pyrazolo[4,3-d]pyrimidin-7-one] | small reduction | −6.7 | −2.7 | −6 | +11.4% | – | – | – |
| CCN(CC)CC#CCOC(=O)C(O)(c1ccccc1)C1CCCCC1 (centres unmarked) [Oxybutynin, oxybutynin, reference compound] | – | – | – | – | – | +3.2% | +18.9% | small increase |
